The assay concerns the target T1, human KDR enzyme (Homo sapiens, UniProt P35968).
T1 construct: The cytoplasmic domain of human KDR enzyme is cloned in the form of a GST fusion; GST; made in house; host or cells: SF21 insect cells (baculovirus, pFastBac)
The assay can be described thus: Phosphorylation of the substrate PLCγ by the enzyme KDR in vitro (flashplate technique). Format: biochemical. The method in brief:
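GST-fused human KDR cytoplasmic domain (Sf21 baculovirus, ~60% pure; 100 ng/well) phosphorylating 2 μg GST-PLCγ SH2-SH3 fragment in MOPS pH 7.2 with MgCl2/MnCl2, 1 h at 37° C. Started with γ33P-ATP plus cold ATP (2 μM in start solution); flashplate radioactivity. % inhibition vs no-compound control; IC50 from dose-response curves.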

Setting [1] is: Table VII, degrees of activity by IC50 range, read-out: Activity.
Where [2] appears, read: read-out: IC50 (μM) on inhibition of the phosphory-lation of PLCγ by KDR.

Molecules are shown by their SMILES. Where two headings read alike, the source gives them in different places.

T1 sequence (P35968 786-1356 limits assumed): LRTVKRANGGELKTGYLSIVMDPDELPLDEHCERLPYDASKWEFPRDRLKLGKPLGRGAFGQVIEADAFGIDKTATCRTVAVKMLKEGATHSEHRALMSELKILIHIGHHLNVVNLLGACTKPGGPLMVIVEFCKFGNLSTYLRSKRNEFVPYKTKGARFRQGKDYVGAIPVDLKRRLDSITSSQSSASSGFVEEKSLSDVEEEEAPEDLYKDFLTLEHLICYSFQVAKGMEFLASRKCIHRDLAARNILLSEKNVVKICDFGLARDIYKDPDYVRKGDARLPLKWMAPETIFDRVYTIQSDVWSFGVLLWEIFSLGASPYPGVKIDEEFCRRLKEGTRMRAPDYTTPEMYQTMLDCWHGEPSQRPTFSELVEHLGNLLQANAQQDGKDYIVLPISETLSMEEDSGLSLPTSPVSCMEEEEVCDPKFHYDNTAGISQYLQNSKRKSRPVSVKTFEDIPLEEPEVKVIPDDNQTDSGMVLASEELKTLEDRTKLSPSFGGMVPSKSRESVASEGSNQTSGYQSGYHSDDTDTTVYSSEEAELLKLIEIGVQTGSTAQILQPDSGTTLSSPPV

Take `Clc1cccc(-c2ccc3nc(-c4[nH]nc5ccccc45)[nH]c3c2)c1` [Example 113, 3-[6-(3-Chloro-phenyl)-1H-benzoimidazol-2-yl]-2H-indazole]: the IC50 under setting [1] lay within 0.3 to 3 µM.

On to `Brc1cccc(COc2cc(-c3nc4ccccc4[nH]3)[nH]n2)c1` [Example 185, 2-[5-(3-Bromo-benzyloxy)-2H-pyrazol-3-yl]-1H-benzoimidazole], for which the IC50 under setting [1] is 0.3 to 3 µM.

In the case of `O=C(NCc1ccccc1)c1ccc2nc(-c3n[nH]c4ccccc34)[nH]c2c1` [Example 1, 2-(1H-Indazol-3-yl)-1H-benzimidazole-5-carboxylic acid benzylamide], the IC50 under setting [2] was determined as 0.47 µM.

As to `N#Cc1cccc(COc2cc(-c3nc4ccccc4[nH]3)[nH]n2)c1` [Example 186, 3-[5-(1H-Benzoimidazol-2-yl)-1H-pyrazol-3-yloxymethyl]-benzonitrile], the IC50 under setting [1] is over 3 µM.

For `Cc1cc(CNC(=O)c2ccc3[nH]c(-c4n[nH]c5ccccc45)nc3c2)c(C)o1` [Example 53, 2-(1H-Indazol-3-yl)-1H-benzoimidazole-5-carboxylic acid (2,5-dimethyl-furan-3-ylmethyl)-amide], the IC50 under setting [1] lay in the range of 0.3 to 3 µM.

As to `N#Cc1ccc(COc2cc(-c3nc4ccccc4[nH]3)[nH]n2)cc1` [Example 192, 4-[5-(1H-Benzoimidazol-2-yl)-1H-pyrazol-3-yloxymethyl]-benzonitrile], the IC50 under setting [1] was over 3 µM.

Take `O=C(c1ccc2[nH]c(-c3n[nH]c4ccccc34)nc2c1)N1CCCC1` [Example 9, 2-(1H-Indazol-3-yl)-1H-benzimidazole-5-carboxylic acid N-pyrrolidinoamide]: the IC50 under setting [2] turned out to be 0.35 µM.

For `COc1ccc2nc(-c3n[nH]c4ccccc34)[nH]c2c1` [Example 16, 5-Methoxy-2-(1H-indazol-3-yl)-1H-benzimidazole], the IC50 under setting [2] stood at 2 µM.

For `CN1CCN(C(=O)c2ccc3[nH]c(-c4n[nH]c5ccccc45)nc3c2)CC1` [Example 151, [2-(1H-Indazol-3-yl)-1H-benzoimidazol-5-yl]-(4-methyl-piperazin-1-yl)-methanone], the IC50 under setting [1] lay in the range of 0.3 to 3 µM.

With `O=C(NCc1ccccc1F)c1ccc2[nH]c(-c3n[nH]c4ccccc34)nc2c1` [Example 165, 2-(1H-Indazol-3-yl)-1H-benzoimidazole-5-carboxylic acid 2-fluoro-benzylamide], under setting [1], the IC50 is over 3 µM.

Consider `O=C(NCc1ccc([N+](=O)[O-])cc1)c1cccc2nc(-c3n[nH]c4ccccc34)[nH]c12` [Example 79, 2-(1H-Indazol-3-yl)-3H-benzoimidazole-4-carboxylic acid 4-nitro-benzylamide], for which the IC50 under setting [1] was over 3 µM.

Consider `COc1ccc(C(=O)Oc2cc(-c3nc4ccccc4[nH]3)[nH]n2)cc1` [Example 218, 4-Methoxy-benzoic acid 5-(1H-benzoimidazol-2-yl)-1H-pyrazol-3-yl ester], for which, under setting [1], the IC50 was over 3 µM.

Turning to `O=C(NCC1CCCCC1)c1ccc2[nH]c(-c3n[nH]c4ccccc34)nc2c1` [Example 11, 2-(1H-Indazol-3-yl)-1H-benzimidazole-5-carboxylic acid N-(cyclohexylmethyl)amide], under setting [2], the IC50 was determined as 0.26 µM.

For the compound `O=C(NCc1ccc(Br)cc1)c1ccc2[nH]c(-c3n[nH]c4ccccc34)nc2c1` [Example 30, 2-(1H-Indazol-3-yl)-1H-benzoimidazole-5-carboxylic acid 4-bromo-benzylamide], the IC50 under setting [1] was under 0.3 µM.

On to `CN(C)c1ccc(CNC(=O)c2cccc3nc(-c4n[nH]c5ccccc45)[nH]c23)cc1` [Example 78, 2-(1H-Indazol-3-yl)-3H-benzoimidazole-4-carboxylic acid 4-dimethylamino-benzylamide], for which the IC50 under setting [1] was over 3 µM.

Consider `Cc1ccccc1-c1ccc2nc(-c3[nH]nc4ccccc34)[nH]c2c1` [Example 109, 3-(6-o-Tolyl-1H-benzoimidazol-2-yl)-2H-indazole], for which the IC50 under setting [1] fell in the range of 0.3 to 3 µM.

On to `CC(C)(C)c1ccc(-c2ccc3nc(-c4[nH]nc5ccccc45)[nH]c3c2)cc1` [Example 118, 3-[6-(4-tert-Butyl-phenyl)-1H-benzoimidazol-2-yl]-2H-indazole], for which, under setting [1], the IC50 was over 3 µM.

For `O=C(NCc1ccc(Oc2ccccc2)cc1)c1cccc2nc(-c3n[nH]c4ccccc34)[nH]c12` [Example 84, 2-(1H-Indazol-3-yl)-3H-benzoimidazole-4-carboxylic acid 4-phenoxy-benzylamide], the IC50 under setting [1] is over 3 µM.

In the case of `O=C(NCc1ccc(Cl)c(F)c1)c1ccc2[nH]c(-c3n[nH]c4ccccc34)nc2c1` [Example 178, 2-(1H-Indazol-3-yl)-1H-benzoimidazole-5-carboxylic acid (3-fluoro-4-chloro-benzyl)amide], the IC50 under setting [1] was under 0.3 µM.

Regarding `O=C(NCc1ccc(-c2ccc(F)cc2)cc1)c1ccc2[nH]c(-c3n[nH]c4ccccc34)nc2c1` [Example 164], the IC50 under setting [1] was over 3 µM.

As for `Cc1ccc(-c2ccc3nc(-c4[nH]nc5ccccc45)[nH]c3c2)cc1` [Example 107, 3-(6-p-Tolyl-1H-benzoimidazol-2-yl)-2H-indazole], the IC50 under setting [1] was over 3 µM.

Take `c1ccc(COc2ccc(-c3ccc4nc(-c5[nH]nc6ccccc56)[nH]c4c3)cc2)cc1` [Example 130, 3-[6-(4-Benzyloxy-phenyl)-1H-benzoimidazol-2-yl]-2H-indazole]: the IC50 under setting [1] is over 3 µM.

With `O=C(NCc1cccc(C(F)(F)F)c1)c1ccc2[nH]c(-c3n[nH]c4ccccc34)nc2c1` [Example 61, 2-(1H-Indazol-3-yl)-1H-benzoimidazole-5-carboxylic acid 3-trifluoromethyl-benzylamide], the IC50 under setting [1] was over 3 µM.

For `CC(=O)c1cccc(-c2ccc3nc(-c4[nH]nc5ccccc45)[nH]c3c2)c1` [Example 129, 1-{3-[2-(2H-Indazol-3-yl)-3H-benzoimidazol-5-yl]-phenyl}-ethanone], under setting [1], the IC50 was over 3 µM.

Regarding `O=C(NCc1ccc(-c2ccccn2)s1)c1ccc2[nH]c(-c3n[nH]c4ccccc34)nc2c1` [Example 173, 2-(1H-Indazol-3-yl)-1H-benzoimidazole-5-carboxylic acid (5-pyridin-2-yl-thiophen-2-ylmethyl)-amide], the IC50 under setting [1] lay in the range of 0.3 to 3 µM.

As to `C(=C\c1ccccc1)/COc1cc(-c2nc3ccccc3[nH]2)[nH]n1` [Example 182, 2-[5-(3-Phenyl-allyloxy)-2H-pyrazol-3-yl]-1H-benzoimidazole], under setting [1], the IC50 fell in the range of 0.3 to 3 µM.

Take `CC(C)(C)OC(=O)N1CCN(C(=O)c2ccc3[nH]c(-c4n[nH]c5ccccc45)nc3c2)CC1` [Example 175, 4-[2-(1H-Indazol-3-yl)-1H-benzoimidazole-5-carbonyl]-piperazine-1-carboxylic acid tert-butyl ester]: under setting [1], the IC50 is 0.3 to 3 µM.

`O=C(NCc1ccc(Cl)cc1Cl)c1ccc2[nH]c(-c3n[nH]c4ccccc34)nc2c1` [Example 167, 2-(1H-Indazol-3-yl)-1H-benzoimidazole-5-carboxylic acid 2,4-dichloro-benzylamide]: under setting [1], the IC50 is under 0.3 µM.

`C=C(C)COc1cc(-c2nc3ccccc3[nH]2)[nH]n1` [Example 183, 2-[5-(2-Methyl-allyloxy)-2H-pyrazol-3-yl]-1H-benzoimidazole]: the IC50 under setting [1] was over 3 µM.

Consider `CN(Cc1ccccc1)C(=O)c1ccc2[nH]c(-c3n[nH]c4ccccc34)nc2c1` [Example 152, 2-(1H-Indazol-3-yl)-1H-benzoimidazole-5-carboxylic acid benzyl-methyl-amide], for which, under setting [1], the IC50 fell in the range of 0.3 to 3 µM.

The values are drawn from patent US20050009894A1 (Aventis Pharma S.A., priority 2001, published 2005).
